{
  "source": "patent US12076307B2",
  "about": "“Compositions for prevention or treatment of acute radiation syndrome and other radiation exposure” (priority 2017, dated 2024)",
  "key": {"[1]": {"test_system": "Balb/c mice, 6.11 Gy gamma-radiation", "experiment": "Radiation-induced pneumonitis mouse model: lung damage", "type": "in vivo", "details": "50 or 250 mg/kg daily Day 0 to 3", "experimental": "To examine the effect of EC-18 on the lung damage in pneumonitis, female Balb/c mice (n=3/group) were exposed to 6.11 Gy of gamma-radiation at Day 0. EC-18 at 50 or 250 mg/kg was administered daily from Day 0 to 3. To verify the vascular leakage of the lung due to radiation exposure, Evans blue staining was diluted with PBS and injected i.v. into mice 30 mins before sacrificing them on Day 3 (FIG. 56).\nThe further microscopical analysis was conducted by extracting the lung after sacrificing the mice. The perfused lung tissues were fixed in 10% buffered formalin for 24 hrs, embedded in paraffin, sectioned at 4 μm, and stained with hematoxylin and eosin (H&E) staining. […] In contrast, the infiltration of the RBCs into the lung tissues was not observed in both the EC-18-treated group."}, "[2]": {"biological_target": "T1, BCRP (Homo sapiens, UniProt Q9UNQ0)", "T1 construct": "expressed in transfected cells; host or cells: LLC-PK1", "T1 sequence (Q9UNQ0 whole entry, species assumed)": "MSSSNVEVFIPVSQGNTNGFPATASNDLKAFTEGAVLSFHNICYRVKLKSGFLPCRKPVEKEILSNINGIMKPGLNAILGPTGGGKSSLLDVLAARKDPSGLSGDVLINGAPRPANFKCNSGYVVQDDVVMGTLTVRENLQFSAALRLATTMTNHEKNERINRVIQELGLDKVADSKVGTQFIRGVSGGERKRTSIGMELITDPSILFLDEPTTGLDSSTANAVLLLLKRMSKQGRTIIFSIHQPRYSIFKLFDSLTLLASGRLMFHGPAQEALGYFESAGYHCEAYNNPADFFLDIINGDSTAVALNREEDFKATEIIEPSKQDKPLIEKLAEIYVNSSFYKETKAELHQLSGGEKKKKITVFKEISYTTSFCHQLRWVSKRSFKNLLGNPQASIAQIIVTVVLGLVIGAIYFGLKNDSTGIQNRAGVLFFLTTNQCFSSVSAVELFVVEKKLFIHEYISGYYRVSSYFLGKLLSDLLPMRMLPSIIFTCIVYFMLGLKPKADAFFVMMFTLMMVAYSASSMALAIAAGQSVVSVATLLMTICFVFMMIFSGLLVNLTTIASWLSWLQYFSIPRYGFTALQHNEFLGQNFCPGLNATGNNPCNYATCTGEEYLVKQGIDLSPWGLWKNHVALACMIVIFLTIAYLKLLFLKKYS", "experiment": "Drug transporter inhibition, BCRP", "type": "in vitro ADME", "details": "100 nM [3H] estrone-3-sulfate; transfected LLC-PK1 cells", "experimental": "(§1) This study examined the potential of EC-18 to interact with the transporter proteins that have been known to be involved in the absorption of commercially available drugs. EC-18 was pre-incubated with HEK-293 cells and LLC-PK1 cells that were transfected with the genes of most drug transporters as follows: OATP1B1, OATP1B3, OAT1, OAT3 and OCT2, and BCRP and P-gp, respectively."}, "[3]": {"test_system": "SD rat", "experiment": "Fertility and early embryonic developmental toxicity study", "type": "in vivo", "details": "Oral; 0, 500, 1000, 2000 mg/kg", "from_the_text": "(§2) Various toxicology studies have been performed. All studies were GLP-compliant unless otherwise noted."}, "[4]": {"experiment": "Fertility and early embryonic developmental toxicity study", "type": "in vivo, rat", "details": "both sexes, SD, rat, in vivo; both males and females", "from_the_text": "as §2"}, "[5]": {"experiment": "Pathway of excretion in rats after single oral [14C]EC-18", "type": "in vivo, rat", "details": "50 mg/kg oral, 50 mg/kg", "experimental": "To assess the routes of EC-18 excretion, male rats were administered a single dose of [^14C]EC-18 (oral dose of 50 mg/kg), after which, radioactive concentrations were measured in urine, feces, and exhaled air in the chamber of the animals for 168 hrs, and in the body after the autopsy."}, "[6]": {"biological_target": "T2, OATP1B1 (Homo sapiens, UniProt Q9Y6L6)", "T2 construct": "expressed in transfected cells; host or cells: HEK-293", "T2 sequence (Q9Y6L6 whole entry, species assumed)": "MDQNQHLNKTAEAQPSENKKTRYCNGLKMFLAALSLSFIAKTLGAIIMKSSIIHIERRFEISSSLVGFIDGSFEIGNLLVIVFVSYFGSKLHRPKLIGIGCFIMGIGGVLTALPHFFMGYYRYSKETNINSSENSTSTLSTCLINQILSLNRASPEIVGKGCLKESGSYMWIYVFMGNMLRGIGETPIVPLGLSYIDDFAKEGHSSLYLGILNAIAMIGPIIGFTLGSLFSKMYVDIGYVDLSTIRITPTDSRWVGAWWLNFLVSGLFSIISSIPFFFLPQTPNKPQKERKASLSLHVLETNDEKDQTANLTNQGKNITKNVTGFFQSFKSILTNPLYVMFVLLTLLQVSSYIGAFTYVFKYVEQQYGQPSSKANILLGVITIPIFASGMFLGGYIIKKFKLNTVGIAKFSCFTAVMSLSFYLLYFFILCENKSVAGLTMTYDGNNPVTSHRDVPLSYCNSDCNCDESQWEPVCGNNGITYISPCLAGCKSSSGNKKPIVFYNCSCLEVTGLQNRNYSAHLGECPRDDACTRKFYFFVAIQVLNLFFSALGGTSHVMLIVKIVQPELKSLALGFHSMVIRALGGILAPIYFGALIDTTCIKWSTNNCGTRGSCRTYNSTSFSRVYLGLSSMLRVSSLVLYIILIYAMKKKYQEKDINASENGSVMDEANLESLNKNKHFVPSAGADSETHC", "experiment": "Drug transporter inhibition, OATP1B1", "type": "in vitro ADME", "details": "100 nM [3H] estrone-3-sulfate; transfected HEK-293 cells", "experimental": "as §1"}, "[7]": {"experiment": "In vitro plasma stability, human plasma", "type": "in vitro ADME", "details": "Humans; 1 μM; 37° C.; n=3", "experimental": "To assess the stability of EC-18 in plasma, the test material, or the standard reference material (test concentration 1 μM) was mixed with rat and human plasma and allowed to react for 1 hr at 37° C. Then, the residual EC-18 concentration was measured by LC-MS/MS. As standard reference materials, albendazole (a drug with high plasma stability) and vinpocetine (a drug with low plasma stability) were tested in parallel. When allowed to react with rat and human plasma for 1 hr, the residual EC-18 concentration in both rat and human plasma was >99% of the initial dose."}, "[8]": {"test_system": "SD rat", "experiment": "Repeated dose toxicity, SD rat", "type": "in vivo", "details": "Oral", "from_the_text": "as §2"}, "[9]": {"experiment": "Repeated dose toxicity, SD rat", "type": "in vivo", "details": "SD, rat, in vivo, Oral", "from_the_text": "as §2"}, "[10]": {"biological_target": "T3, P-gp (Homo sapiens, UniProt P08183)", "T3 construct": "expressed in transfected cells; host or cells: LLC-PK1", "T3 sequence (P08183 whole entry)": "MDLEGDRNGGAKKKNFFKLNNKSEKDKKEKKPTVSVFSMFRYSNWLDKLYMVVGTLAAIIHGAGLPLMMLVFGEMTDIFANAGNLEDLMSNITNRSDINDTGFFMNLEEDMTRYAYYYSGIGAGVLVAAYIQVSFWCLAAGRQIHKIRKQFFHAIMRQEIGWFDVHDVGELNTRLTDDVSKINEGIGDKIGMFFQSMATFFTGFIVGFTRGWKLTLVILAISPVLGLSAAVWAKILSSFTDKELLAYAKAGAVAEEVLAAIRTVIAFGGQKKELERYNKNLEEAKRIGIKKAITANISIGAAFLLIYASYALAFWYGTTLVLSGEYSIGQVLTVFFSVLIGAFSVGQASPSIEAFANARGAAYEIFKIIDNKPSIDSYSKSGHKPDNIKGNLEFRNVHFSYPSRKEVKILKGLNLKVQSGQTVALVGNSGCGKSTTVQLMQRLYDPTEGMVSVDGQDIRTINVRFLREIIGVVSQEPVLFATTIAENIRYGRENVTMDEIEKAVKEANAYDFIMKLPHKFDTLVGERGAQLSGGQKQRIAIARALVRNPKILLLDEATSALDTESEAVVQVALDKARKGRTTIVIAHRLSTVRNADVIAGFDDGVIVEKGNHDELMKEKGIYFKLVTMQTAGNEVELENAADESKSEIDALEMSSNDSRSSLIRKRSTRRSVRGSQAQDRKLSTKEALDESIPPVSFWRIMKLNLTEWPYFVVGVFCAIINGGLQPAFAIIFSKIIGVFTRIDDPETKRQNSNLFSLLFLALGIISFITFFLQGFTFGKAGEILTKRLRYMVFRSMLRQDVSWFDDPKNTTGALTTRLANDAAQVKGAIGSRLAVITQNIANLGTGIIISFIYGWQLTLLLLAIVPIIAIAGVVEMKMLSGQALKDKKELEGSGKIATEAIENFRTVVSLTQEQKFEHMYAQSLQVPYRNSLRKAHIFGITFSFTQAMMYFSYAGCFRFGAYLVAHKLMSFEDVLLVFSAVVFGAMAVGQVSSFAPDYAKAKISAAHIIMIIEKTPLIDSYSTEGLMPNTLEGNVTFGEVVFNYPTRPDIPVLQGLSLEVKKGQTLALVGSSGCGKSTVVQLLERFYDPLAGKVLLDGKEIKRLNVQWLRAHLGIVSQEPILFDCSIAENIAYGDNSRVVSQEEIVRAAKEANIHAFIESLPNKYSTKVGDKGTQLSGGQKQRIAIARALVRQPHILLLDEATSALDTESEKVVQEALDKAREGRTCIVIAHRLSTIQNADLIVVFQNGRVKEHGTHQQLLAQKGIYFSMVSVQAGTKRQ", "experiment": "Drug transporter inhibition, P-gp", "type": "in vitro ADME", "details": "[3H]digoxin; transfected LLC-PK1 cells", "experimental": "as §1"}, "[11]": {"test_system": "Sprague Dawley rats", "experiment": "Respiratory function in rats", "type": "in vivo, rat", "details": "single oral doses up to 2000 mg/kg", "experimental": "EC-18 was orally administered to Sprague Dawley rats (n=6 males/group) at single doses of 0, 500, 1000 and 2000 mg/kg. Tidal volume, respiration rate per minute and minute volume were measured with whole-body plethysmograph at 0 (pre-dose), 1, 2 and 4-hr post-dose."}, "[12]": {"test_system": "Sprague-Dawley rats", "experiment": "Central nervous system of rats (FOB)", "type": "in vivo, rat", "details": "doses up to 2000 mg/kg; to 24 hrs", "experimental": "Sprague-Dawley rats (n=8 males/group) received control material (olive oil) or EC-18 at 500, 1000, and 2000 mg/kg. The functional observational battery test, which included observations inside the cage, in open space, and while holding in the hands, along with sensory-motor function, and body temperature measurements were performed before EC-18 administration and 0.5, 1, 3, 6, and 24 hrs after control or EC-18 administration."}, "[13]": {"test_system": "SD rat", "experiment": "Embryo-fetal developmental toxicity study, SD rat", "type": "in vivo", "details": "for mortality: 0, 500, 1000, 2000 mg/kg", "from_the_text": "as §2"}, "[14]": {"experiment": "Embryo-fetal developmental toxicity study, SD rat", "type": "in vivo", "details": "SD, rat, in vivo; definitive study; Oral 11 days", "from_the_text": "as §2"}},
  "data": [
    {"smiles": "CCCCC/C=C\\C/C=C\\CCCCCCCC(=O)OC(COC(C)=O)COC(=O)CCCCCCCCCCCCCCC", "note": "(stereo not shown) [EC-18, 1-palmitoyl-2-linoleoyl-3-acetylglycerol]", "values": [
      {"measurement": "infiltration of RBCs into the lung tissues (H&E)", "setting": "[1]", "result": "not observed"},
      {"measurement": "vascular leakage of the lung (Evans blue)", "setting": "[1]", "result": "mitigated the vascular leakage"},
      {"measurement": "IC50", "setting": "[2]", "result": "> 32", "unit": "µM"},
      {"measurement": "mortality", "setting": "[3]", "result": "No dead animals"},
      {"measurement": "NOAEL", "setting": "[4]", "result": 2000, "unit": "mg/kg/day"},
      {"measurement": "Cumulative Radioactive Concentration Relative to the Administered Dose, Exhaled Air", "setting": "[5]; 0-24 hr", "result": "approximately 71%"},
      {"measurement": "Cumulative Radioactive Concentration Relative to the Administered Dose, Feces", "setting": "[5]; 0-24 hr", "result": "~3", "unit": "%"},
      {"measurement": "Cumulative Radioactive Concentration Relative to the Administered Dose, Total", "setting": "[5]; 0-24 hr", "result": "approximately 76%"},
      {"measurement": "Cumulative Radioactive Concentration Relative to the Administered Dose, Urine", "setting": "[5]; 0-24 hr", "result": "~2", "unit": "%"},
      {"measurement": "Cumulative Radioactive Concentration Relative to the Administered Dose, Exhaled Air", "setting": "[5]; 0-72 hr", "result": "~77", "unit": "%"},
      {"measurement": "Cumulative Radioactive Concentration Relative to the Administered Dose, Feces", "setting": "[5]; 0-72 hr", "result": "~4", "unit": "%"},
      {"measurement": "Cumulative Radioactive Concentration Relative to the Administered Dose, Total", "setting": "[5]; 0-72 hr", "result": "approximately 83%"},
      {"measurement": "Cumulative Radioactive Concentration Relative to the Administered Dose, Urine", "setting": "[5]; 0-72 hr", "result": "~2", "unit": "%"},
      {"measurement": "Cumulative Radioactive Concentration Relative to the Administered Dose, Cadaver", "setting": "[5]; 0-168 hr", "result": "approximately 10%"},
      {"measurement": "Cumulative Radioactive Concentration Relative to the Administered Dose, Exhaled Air", "setting": "[5]; 0-168 hr", "result": "~79", "unit": "%"},
      {"measurement": "Cumulative Radioactive Concentration Relative to the Administered Dose, Feces", "setting": "[5]; 0-168 hr", "result": "~4", "unit": "%"},
      {"measurement": "Cumulative Radioactive Concentration Relative to the Administered Dose, Total", "setting": "[5]; 0-168 hr", "result": "~96", "unit": "%"},
      {"measurement": "Cumulative Radioactive Concentration Relative to the Administered Dose, Urine", "setting": "[5]; 0-168 hr", "result": "~2", "unit": "%"},
      {"measurement": "IC50", "setting": "[6]", "result": "> 32", "unit": "µM"},
      {"measurement": "Residual Concentration Relative to the Initial Dose After Reaction for 1 hr in Plasma", "setting": "[7]", "result": ">99", "unit": "%"},
      {"measurement": "findings", "setting": "[8]; 4 weeks (DRF)", "result": "No specific findings"},
      {"measurement": "mortality", "setting": "[8]; 4 weeks (DRF), 0, 500, 1000, 2000 mg/kg", "result": "No dead animals"},
      {"measurement": "findings", "setting": "[8]; 13 weeks", "result": "No specific findings"},
      {"measurement": "mortality", "setting": "[8]; 13 weeks, 0, 500, 1000, 2000 mg/kg", "result": "No dead animals"},
      {"measurement": "findings", "setting": "[8]; 26 weeks (4-week recovery)", "result": "No specific findings"},
      {"measurement": "mortality", "setting": "[8]; 26 weeks (4-week recovery), male in 500 mg/kg group, 41st day, no relationship to EC-18 dosing", "result": "A single case of death"},
      {"measurement": "NOAEL at 4 weeks", "setting": "[9]; 4 weeks (DRF)", "result": "> 2000", "unit": "mg/kg/day"},
      {"measurement": "NOAEL at 13 weeks", "setting": "[9]; 13 weeks", "result": "> 2000", "unit": "mg/kg/day"},
      {"measurement": "NOAEL at 26 weeks", "setting": "[9]; 26 weeks (4-week recovery)", "result": "> 2000", "unit": "mg/kg/day"},
      {"measurement": "IC50", "setting": "[10]", "result": "> 32", "unit": "µM"},
      {"measurement": "respiratory function", "setting": "[11]", "result": "did affect the respiratory function"},
      {"measurement": "CNS (functional observational battery)", "setting": "[12]", "result": "did not affect the CNS"},
      {"measurement": "significant differences in implantation rate, male-to-female ratio of fetuses, fetal mortality rate vs control", "setting": "[13]; DRF study, Oral 11 days", "result": "There were no"},
      {"measurement": "mortality", "setting": "[13]; DRF study, Oral 11 days (day-7 to day-17 of pregnancy)", "result": "No dead animals"},
      {"measurement": "findings", "setting": "[13]; definitive study, Oral 11 days", "result": "No specific findings"},
      {"measurement": "mortality", "setting": "[13]; definitive study, Oral 11 days", "result": "No dead animals"},
      {"measurement": "NOAEL at 11 days", "setting": "[14]", "result": 2000, "unit": "mg/kg/day"}
    ]}
  ]
}
